Experimental data published in patent publication US4877795A, “4H-quinolizin-4-one compounds useful for the treatment of allergic bronchial asthma, allergic rhinitis atropic dermatitis and the like” (Kissei Pharmaceutical Co., Ltd., priority 1987, dated 1989).

Tests used:
IgE = assay: Determination of Igs produced in in vitro culture: inhibition of IgE secreted by spleen cells (adoptive secondary immune response to DNP-As), ELISA; type: cell-based, BALB/c mice; conditions: Mus musculus, 96 h, 4 days culture; for inhibition at 10 µg/mL: 10.0 μg/ml; for inhibition at 5 µg/mL: 5.0 μg/ml; for inhibition at 1 µg/mL: 1.0 μg/ml; for inhibition at 0.25 µg/mL: 0.25 μg/ml; for inhibition at 2.5 µg/mL: 2.5 μg/ml; for inhibition at 40 µg/mL: 40.0 μg/ml
Method: (§1) Determination of Igs produced in in vitro culture
(§2) BALB/c mice were immunized intraperitoneally with 5 μg of DNP-As adsorbed in 4 mg aluminum hydroxide gel. 4 weeks after the immunization, the spleens were excised from the mice and 5×10^7 spleen cells were transferred intravenously into the recipient mice which had been exposed to 600 rad of X-ray irradiation. Immediately after cell transfer, the recipients were then immunized intraperitoneally with 5 μg of DNP-As adsorbed in 4 mg aluminum hydroxide gel to induce adoptive secondary immune response. Further 4 weeks after the immunization of recipients, the spleens were excised from them and the spleen cell suspensions 5×10^6 cells/ml were cultured with or without a compound to be tested in 96-well micro plates at 37° C. for 4 days. IgE and IgG secreted into the culture supernatant was each determined correspondingly by ELISA and the inhibitory effect was calculated according to the following equation. [formula]

IgG = assay: Determination of Igs produced in in vitro culture: inhibition of IgG secreted by spleen cells (adoptive secondary immune response to DNP-As), ELISA; type: cell-based, BALB/c mice; conditions: Mus musculus, 96 h, 4 days culture; for inhibition at 10 µg/mL: 10.0 μg/ml; for inhibition at 5 µg/mL: 5.0 μg/ml; for inhibition at 1 µg/mL: 1.0 μg/ml; for inhibition at 0.25 µg/mL: 0.25 μg/ml; for inhibition at 2.5 µg/mL: 2.5 μg/ml; for inhibition at 40 µg/mL: 40.0 μg/ml
Method: as §1, §2

Q: Which results are given for `COc1ccc(CC(=O)c2c(SC)c(C#N)c(=O)n3ccccc23)cc1` [S-102, 3-Cyano-1-(4-methoxyphenylacetyl)-2-methylthio-4H-quinolizin-4-one]?
A: inhibition at 10 µg/mL (IgE): 52%; inhibition at 10 µg/mL (IgG): 20%

Q: With `CSc1c(C#N)c(=O)n2ccccc2c1C(=O)OC1CCCCCCC1` [S-20, Cyclooctyl 3-cyano-2-methylthio-4H-quinolizin-4-one-1-carboxylate] as the compound, how does the inhibition at 5 µg/mL (IgE) read?
A: 84%

Q: What about the inhibition at 5 µg/mL (IgG) of the same compound?
A: 52%

Q: For `CSc1c(C#N)c(=O)n2ccccc2c1C(=O)OCc1cccc(Cl)c1` [S-38, 3'-Chlorobenzyl 3-cyano-2-methylthio-4H-quinolizin-4-one-1-carboxylate], which inhibition at 1 µg/mL (IgE) is on record?
A: 77%

Q: And the inhibition at 1 µg/mL (IgG)?
A: 43%

Q: For `CSc1c(C#N)c(=O)n2ccccc2c1C(=O)OCCOc1ccc(Cl)cc1` [S-53, 2'-(4-Chorophenoxy)ethyl 3-cyano-2-methylthio-4H-quinolizin-4-one-1-carboxylate], which inhibition at 0.25 µg/mL (IgE) is on record?
A: 69%

Q: What about the inhibition at 0.25 µg/mL (IgG) of the same compound?
A: 49%

Q: What does the source list for `CCOC(=O)c1c(SC(C)C)c(C#N)c(=O)n2ccccc12` [S-57, Ethyl 3-cyano-2-isopropylthio-4H-quinolizin-4-one-1-carboxylate]?
A: inhibition at 5 µg/mL (IgE): 53%; inhibition at 5 µg/mL (IgG): 32%

Q: What does the source list for `CSc1c(C#N)c(=O)n2ccccc2c1C(=O)N1CCC(c2ccccc2)CC1` [S-78, 3-Cyano-2-methylthio-1-(4-phenylpiperidinocarbonyl)-4H-quinolizin-4-one]?
A: inhibition at 2.5 µg/mL (IgE): 60%; inhibition at 2.5 µg/mL (IgG): 16%

Q: Which results are given for `CSc1c(C#N)c(=O)n2ccccc2c1C(=O)Cc1ccccc1C` [S-98, 3-Cyano-1-(2-methylphenylacetyl)-2-methylthio-4H-quinolizin-4-one]?
A: inhibition at 10 µg/mL (IgE): 38%; inhibition at 10 µg/mL (IgG): 13%

Q: Which inhibition at 1 µg/mL (IgE) does the source give for `CSc1c(C#N)c(=O)n2ccccc2c1C(=O)OCc1cccc2ccccc12` [S-42, 1'-Naphthylmethyl 3-cyano-2-methylthio-4H-quinolizin-4-one-1-carboxylate] here?
A: 75%

Q: What about the inhibition at 1 µg/mL (IgG) of the same compound?
A: 43%

Q: How did the inhibition at 40 µg/mL (IgE) turn out when `CSc1c(C#N)c(=O)n2ccccc2c1C(=O)OC/C=C/c1ccccc1` [S-47, trans-Cinnamyl 3-cyano-2-methylthio-4H-quinolizin-4-one-1-carboxylate] was run?
A: 60%

Q: What about the inhibition at 40 µg/mL (IgG) of the same compound?
A: 28%

Q: What does the source list for `CSc1c(C#N)c(=O)n2ccccc2c1C(=O)OCCCC1CCCCC1` [S-3, 3'-Cyclohexylpropyl 3-cyano-2-methylthio-4H-quinolizin-4-one-1-carboxylate]?
A: inhibition at 1 µg/mL (IgE): 79%; inhibition at 1 µg/mL (IgG): 35%

Q: Which results are given for `CSc1c(C#N)c(=O)n2ccccc2c1C(=O)N1CCCC2CCCCC21` (stereo not shown) [S-86]?
A: inhibition at 2.5 µg/mL (IgE): 46%; inhibition at 2.5 µg/mL (IgG): 21%

Q: `CSc1c(C#N)c(=O)n2ccccc2c1C(=O)Cc1ccc(C)cc1C` [S-100, 3-Cyano-1-(2,4dimethylphenylacetyl)-2-methylthio-4H-quinolizin-4-one] was tested. Which inhibition at 2.5 µg/mL (IgE) did it give?
A: 63%

Q: And the inhibition at 2.5 µg/mL (IgG)?
A: 34%

Q: `CSc1c(C#N)c(=O)n2ccccc2c1C(=O)Cc1ccc(C)c(C)c1` [S-101, 3-Cyano-1-(3,4-dimethylphenylacetyl)-2-methylthio-4H-quinolizin-4-one] was tested. Which inhibition at 40 µg/mL (IgE) did it give?
A: 58%

Q: What about the inhibition at 40 µg/mL (IgG) of the same compound?
A: 13%

Q: For `CSc1c(C#N)c(=O)n2ccccc2c1C(=O)OCc1ccc(F)cc1` [S-34, 4'-Fluorobenzyl 3-cyano-2-methylthio-4H-quinolizin-4-one-1-carboxylate], which inhibition at 0.25 µg/mL (IgE) is on record?
A: 52%

Q: And the inhibition at 0.25 µg/mL (IgG)?
A: 31%

Q: For `CSc1c(C#N)c(=O)n2ccccc2c1C(=O)OC1C2CC3CC(C2)CC1C3` (stereo not shown) [S-21, 2'-Adamantyl 3-cyano-2-methylthio-4H-quinolizin-4-one-1-carboxylate], which inhibition at 5 µg/mL (IgE) is on record?
A: 70%

Q: And the inhibition at 5 µg/mL (IgG)?
A: 47%

Q: For `CSc1c(C#N)c(=O)n2ccccc2c1C(=O)NC1CCCCC1` [S-72, 3-Cyano-N-cyclohexyl-2-methylthio-4H-quinolizin-4-one-1-carboxamide], which inhibition at 5 µg/mL (IgE) is on record?
A: 46%

Q: And the inhibition at 5 µg/mL (IgG)?
A: -5%

Q: How did the inhibition at 5 µg/mL (IgE) turn out when `COC(=O)c1ccc(CNC(=O)c2c(SC)c(C#N)c(=O)n3ccccc23)cc1` [S-77] was run?
A: 34%

Q: What about the inhibition at 5 µg/mL (IgG) of the same compound?
A: 10%
